From PMC8997913, “Lichen Secondary Metabolites Inhibit the Wnt/β-Catenin Pathway in Glioblastoma Cells and Improve the Anticancer Effects of Temozolomide” (Cells, 2022)
Entries after “also recorded” stand apart in the source; their conditions may differ.

Tests used:
Format in all cases: cell-based, human
[1] = system: Wnt/β-catenin pathway target genes in A-172 cells; experiment: qPCR of β-catenin and Wnt target genes, A-172; settings: A-172, 48 h
Description: (§1) Based on the MTT test, the lichen secondary metabolite concentrations allowing the survival of more than 70% of cells were chosen for the subsequent experiments. The compounds were added as follows: A-172 cells—atranorin 25 µM, caperatic acid 50 µM, physodic acid 25 µM, squamatic acid 25 µM, salazinic acid 50 µM, and lecanoric acid 100 µM; T98G cells—atranorin 50 µM, caperatic acid 100 µM, physodic acid 25 µM, squamatic acid 50 µM, salazinic acid 100 µM, and lecanoric acid 100 µM; U-138 MG cells—atranorin 25 µM, caperatic acid 50 µM, physodic acid 25 µM, squamatic acid 50 µM, salazinic acid 50 µM, and lecanoric acid 100 µM. As far as the TMZ treatment is concerned, it was added in the concentrations depending on the MGMT expression and methylation status, i.e., TMZ 30 µM was added to the A-172 cell line, and TMZ 100 µM was added to both the T98G and U-138 MG cell lines. In the case of the 2D culture, the cells were treated with the compounds 24 h after seeding, whereas, in regard to 3D culture, 5 days were needed to form spheroids. All subsequent analyses were performed 48 h after treatment.
The Universal RNA Purification Kit (EURx, Gdańsk, Poland) was used for total RNA isolation from the A-172, T98G, and U-138 MG cells, and the Revert-Aid First Strand cDNA Synthesis kit (Fermentas, Burlington, ON, Canada) was chosen for cDNA synthesis. Quantitative real-time PCR (qPCR) was performed using Hot FIREPol EvaGreen qPCR Mix Plus (Solis Biodyne, Tartu, Estonia) and LightCycler 96 (Roche Diagnostics GmbH, Mannheim, Germany). Primer sequences were previously published and their synthesis was performed at the Institute of Biochemistry and Biophysics, Warsaw, Poland. The protocol started with 15 min enzyme activation at 95 °C, followed by 40 cycles of 95 °C for 15 s; appropriate annealing temperature for 20 s; 72 °C for 40 s and the final elongation at 72 °C for 5 min. Melting curve analysis was used to confirm the generation of a single amplification product. TATA box-binding protein (TBP), a component of the DNA-binding protein complex TFIID, served as the endogenous RNA control. The results were expressed as N-fold differences in the gene expression relative to the TBP gene. The ΔΔCt method was used for fold-change calculation. All samples were analyzed in triplicate, and the reaction was repeated at least twice.

T98G cells [2] = experiment: Cell cycle distribution, flow cytometry, T98G; settings: 48 h
Description: as §1
The Muse Cell Cycle Kit and the Muse Cell Cycle Software (both Merck, Darmstadt, Germany) were used to quantitatively measure the percentage of cells in the G0/G1, S, and G2/M phases of the cell cycle. The assay utilizes the nuclear DNA intercalating stain propidium iodide and RNAse A in a formulation. Propiodium iodide discriminates cells at different stages of the cell cycle, based on differential DNA content, while the presence of RNAse increases the specificity of DNA staining. Briefly, the cells were seeded on 6-well plates (100,000 cells per well) and incubated for 24 h. Afterward, the lichen secondary metabolites were added to the concentrations chosen based on the MTT test, allowing >70% of cell survival. 0.5% DMSO and 100 nM topotecan were used as negative and positive controls, respectively. The analysis was performed after a 48 h incubation with lichen secondary metabolites and started with washing the cells with PBS, followed by cell fixation with ice-cold ethanol and overnight incubation at −20 °C. Following steps included cell re-washing with PBS, then a 30 min incubation in the dark with propiodium iodide-RNAse A formulation, and a final analysis on Muse™ Cell Analyzer (Merck, Darmstadt, Germany).

A-172 cells = experiment: MTT test, A-172; settings: for number of living cells: A-172, 1–100 µM; for IC50: A 172, 48 h, three independent experiments, read-out: IC50 [uM] ± SEM A-172
Description: Three human GBM cell lines were used in this study, i.e., A-172 (ATCC-CRL-1620), T98G (92090213), and U-138 MG (ATCC-HTB-16). The A-172 and U-138 MG cell lines were purchased from the American Type Culture Collection (ATCC), whereas the T98G cell line was obtained from the European Collection of Authenticated Cell Cultures (ECACC). It has been confirmed by us that O^6-methylguanine-DNA methyltransferase (MGMT), the key factor determining the response to alkylating agents, such as TMZ, is expressed in T98G and U-138 MG cells, whereas in A-172 the expression of MGMT is silenced by promoter methylation. Therefore, the cell lines differ in terms of TMZ sensitivity; A-172 is regarded as TMZ sensitive, whereas T98G and U-138 MG are TMZ resistant.
The cells were grown as monolayers (2D cell culture) in the recommended media: A-172 were grown in the ATCC-formulated DMEM (Merck, Darmstadt, Germany), whereas T98G and U-138 MG cell lines were grown in the ATCC-formulated EMEM (Merck, Darmstadt, Germany). These media were supplemented with FBS (Biowest, Nuaillé, France) to a final concentration of 10%, as well as antibiotics (penicillin and streptomycin) (Merck, Darmstadt, Germany) to the final concentrations of 1%. For the experiments, the amount of FBS was reduced to 5%. The medium for the T98G cell line was supplemented with 2 mM glutamine, 1% nonessential amino acids, and 1% sodium pyruvate (all purchased from Merck, Darmstadt, Germany).
In order to analyze the cytotoxicity of the analyzed lichen secondary metabolites, as well as to establish the appropriate concentrations for further analysis (allowing the survival of >70% of cells), we performed the MTT test. The procedure of the test was described previously. Briefly, the cells (10,000 cells per well) were seeded on the 96-well plates and left for 24 h. Afterwards, the analyzed compounds in the concentration range of 1 µM up to 100 µM were added to the cells and left for 48 h incubation. DMSO treated cells served as control. After the above-mentioned time, the cells were washed twice with warm PBS and incubated for 3 h in the presence of a fresh medium containing MTT salt (0.5 mg/mL). Then the formazan crystals were dissolved in acidic isopropanol. The absorbance was measured at 570 and 690 nm on a Tecan Infinite M200 microplate reader (Grödig, Austria). The experiments were repeated at least three times.

T98G cells [3] = experiment: Apoptosis, caspase-3/7 and 7-AAD flow cytometry, T98G; settings: 48 h, topotecan 100 nM
Description: as §1
The fluorescent-based analysis of apoptosis using Muse® Caspase-3/7 Kit was performed in order to analyze the percentage of live, early, and late apoptotic; total apoptotic; and dead cells in A-172, T98G, and U-138 MG GBM cells treated with lichen secondary metabolites. The principle of the method relies on the measurement of the activity of executioner caspases, i.e., caspase-3 and caspase-7, as well as analyzing the integrity of the cell membrane with the use of a dead cell marker 7-AAD. Cell seeding and treatment followed the same protocol as for cell cycle or ROS generation analysis, while the subsequent procedures were performed according to the manufacturer’s recommendations.

[4] = mRNA vs DMSO control, single agent, (TMZ 30 µM)
[5] = mRNA vs DMSO control, single agent

Compound	Axin2 expression [1, 4]	number of cells in G0/G1 phases vs control (T98G cells [2])	number of cells in S phase vs control (T98G cells [2])	number of living cells (A-172 cells; 48 h)	IC50 (A-172 cells; Homo sapiens)	NEDD9 expression [1, 5]	viability at 100 µM (A-172 cells; Homo sapiens, A-172, highest tested concentration (100 µM), 48 h)	c-MYC expression [1, 4]	number of apoptotic cells vs control (T98G cells [3])	cells killed (A-172 cells; A-172, 100 µM, 48 h)	percentage of cells in G2/M phases vs control (T98G cells [2])	CCND1 expression ([1]; co-treatment with TMZ 30 µM)	BIRC5 expression [1, 5]
COC(=O)c1c(C)cc(OC(=O)c2c(C)cc(O)c(C=O)c2O)c(C)c1O [Atranorin]	downregulated	slightly increased	reduced	reduced the number of living cells in the whole analyzed concentration range	90.9 ± 3.7 µM	–	–	–	–	–	–	–	–
CCCCCCCCCCCCCCC(C(=O)O)C(O)(CC(=O)OC)C(=O)O (stereo not drawn) [Caperatic acid]	downregulated	diminished	–	–	80.1 ± 1.88 µM	downregulated	11.7 ± 5.51%	–	–	–	–	–	–
Cc1cc(OC(=O)c2c(C)cc(O)cc2O)cc(O)c1C(=O)O [Lecanoric acid]	–	–	–	–	> 100 µM	–	–	upregulated	significant increase; also recorded: induced apoptosis	~ 30%	–	–	–
Cc1cc(O)c(C=O)c2c1C(=O)Oc1c(CO)c(O)c3c(c1O2)C(O)OC3=O (stereo not drawn) [Salazinic acid]	–	slightly increased	reduced	–	–	–	–	–	significant increase; also recorded: induced apoptosis	–	diminished	–	–
COc1cc(C)c(C(=O)Oc2cc(C)c(C(=O)O)c(O)c2C)c(O)c1C(=O)O [Squamatic acid]	downregulated	–	–	reduced the number of living cells in the whole analyzed concentration range	84.9 ± 3.62 µM	–	–	–	significant increase; also recorded: induced apoptosis	–	–	upregulation	diminished
